Reference: patent US20200071310A1, “N-ARYL PYRAZOLES AS NRF2 REGULATORS” (GLAXOSMITHKLINE INTELLECTUAL PROPERTY DEVELOPMENT LIMITED, priority 2016, published 2020)

The compounds below were run against T1, Keap1 (321-609) Kelch domain / TAMRA-labeled NRF2 peptide (ETGE motif) (Homo sapiens, UniProt Q14145) (assay: NRF2-Keap1 FP Assay). Conditions: Keap1 (321-609) 20 nM, Tamra labeled peptide 8 nM.
T1 construct: the Kelch domain (321-609) of Keap1 is used
Type: binding
Description: One model for the NRF2-Keap1 interaction is through two binding sites in the Neh2 domain on NRF2. The two sites are referred to as the DLG binding motif (latch domain, uM affinity) and the ETGE binding motif (hinge domain, nM affinity). The Keap1 protein consists of an N-terminal region (NTR), a broad complex, tramtrack, and brick a' brac domain (BTB), an intervening region (IVR), a double glycine repeat domain (DGR or Kelch), and a C-terminal region. The DLG and ETGE motifs of NRF2's Neh2 domain bind to the Kelch domain of Keap1 at different affinities. In the Keap1 Kelch fluorescence polarization (FP) assay, a TAMRA-labeled 16mer peptide (AFFAQLQLDEETGEFL) containing the ETGE motif of NRF2 and the Kelch domain (321-609) of Keap1 is used. The assay determines if a compound interferes with the binding between Keap1 […] and the TAMRA-labeled peptide. Binding of TAMRA-labeled NRF2 peptide to Keap1 (321-609) results in a high FP signal. If a compound interferes with the binding between the peptide and the protein, it will cause the assay signal to decrease. Thus, assay signal is inversely proportional to binding inhibition.
100 nl of 100× compound dose response curves (serial 3-fold dilutions) in DMSO were stamped using an Echo liquid handling system (Labcyte) into 384-well low volume black assay plates (Greiner, #784076), with DMSO in columns 6 and 18. The top concentration of compound was located in columns 1 and 13. Keap1 (321-609) was diluted to 40 nM (2×) in 1× assay buffer (50 mM Tris, pH 8.0, 100 mM NaCl, 5 mM MgCl2, 1 mM DTT, 2 mM CHAPS, and 0.005% BSA) and 5 ul was added using a Multidrop Combi (Thermo Electron Corporation) equipped with a metal tip dispenser to all wells of the compound plate, except column 18. Column 18 received only 5 ul of assay buffer. Immediately, 5 uL of 16 nM (2×) of Tamra labeled peptide (AFFAQLQLDEETGEFL, 21st Century Biochemicals) was added to all wells of the plate. The plates were spun at 500 rpm for 1 min, incubated for 1 hr at room temperature, and read on an Analyst GT (Molecular Devices) equipped with excitation (530/25 nm) and emission (580/10 nm) filters designed for Tamra probes. A 561 nm dichroic mirror was also used in the Analyst. The final assay concentrations of Keap1l (321-609) and Tamra labeled peptide were 20 nM and 8 nM, respectively. Fluorescence measurements, represented as mP, were used in the transformation of the data. Compound activity was calculated based on percent inhibition, normalized against controls in the assay (Control 1 contains the Tamra peptide and Keap1 (321-609) together (0% response) and control 2 contains the Tamra peptide alone (100% response)). Data analysis was handled using the software package Abase XE (Surrey, United Kingdom. The % inhibition values were calculated by the equation:
100−(100*((compound response−average control 2)/(average control 1−average control2))).
For calculation of pIC50s, Abase XE used a four parameter equation.
IC50s<1 nM (+++++), IC50s 1 nM-10 nM (++++), IC50s 10-100 nM (+++), IC50s 100 nM-1 μM (++), IC50s 1-10 μM (+), IC50s>10 μM (−), or were not determined (ND).

T1 sequence (Q14145 321-609): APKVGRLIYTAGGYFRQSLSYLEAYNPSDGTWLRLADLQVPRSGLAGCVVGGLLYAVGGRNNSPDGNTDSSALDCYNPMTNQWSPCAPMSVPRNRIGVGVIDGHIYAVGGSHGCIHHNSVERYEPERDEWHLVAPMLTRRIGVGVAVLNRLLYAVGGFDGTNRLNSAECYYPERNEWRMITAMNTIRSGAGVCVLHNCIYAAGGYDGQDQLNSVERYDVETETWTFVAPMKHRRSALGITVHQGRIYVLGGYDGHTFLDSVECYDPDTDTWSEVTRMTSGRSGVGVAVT

Which EC50 does the source give for `Cc1ccccc1S(=O)(=O)N(C)Cc1cccc(-n2ncc(C(=O)O)c2[C@@H]2C[C@H]2c2cn(C)nn2)c1` (racemic) [Example 42, 1-(3-((N,2-dimethylphenylsulfonamido)methyl)phenyl)-5-((trans)-2-(1-methyl-1H-1,2,3-triazol-4-yl)cyclopropyl)-1H-pyrazole-4-carboxylic acid] here?
Its EC50 is 100 to 1000 nM.

Which EC50 does the source give for `Cn1cc([C@@H]2C[C@H]2c2c(C(=O)O)cnn2-c2cccc(CN3Cc4ncccc4OC(C)(C)C3)c2)nn1` (racemic) [Example 9] here?
The EC50 was 10 to 100 nM.

Which EC50 does the source give for `Cn1cc([C@@H]2C[C@H]2c2c(C(=O)O)cnn2-c2cccc(Cn3ccnc3CN3CCCCC3)c2)nn1` (racemic) [Example 24] here?
The EC50 was 10 to 100 nM.

Which EC50 does the source give for `COc1cc([N+](=O)[O-])ccc1S(=O)(=O)N(C)Cc1cccc(-n2ncc(C(=O)O)c2[C@@H]2C[C@H]2c2cn(C)nn2)c1` (racemic) [Example 44, 1-(3-((2-methoxy-N-methyl-4-nitrophenylsulfonamido)methyl)phenyl)-5-((trans)-2-(1-methyl-1H-1,2,3-triazol-4-yl)cyclopropyl)-1H-pyrazole-4-carboxylic acid] here?
Its EC50 is 100 to 1000 nM.

Which EC50 does the source give for `C[C@H]1Cc2ccc(C(F)(F)F)cc2S(=O)(=O)N(Cc2cccc(-n3ncc(C(=O)O)c3[C@@H]3C[C@H]3c3cn(C)nn3)c2)C1` (racemic) [Example 16, 1-(3-((4-methyl-1,1-dioxido-8-(trifluoromethyl)-4,5-dihydro-benzo[f][1,2]thiazepin-2(3H)-yl)methyl)phenyl)-5-((trans)-2-(1-methyl-1H-1,2,3-triazol-4-yl)cyclopropyl)-1H-pyrazole-4-carboxylic acid] here?
Its EC50 is 1 to 10 nM.

With `CC[C@H]1Cc2ccccc2S(=O)(=O)N(Cc2cccc(-n3ncc(C(=O)O)c3[C@@H]3C[C@H]3c3cn(C)nn3)c2)C1` [Example 4] as the compound, how does the EC50 read?
Its EC50 is 1 to 10 nM.

Which EC50 does the source give for `Cn1cc([C@@H]2C[C@H]2c2c(C(=O)O)cnn2-c2cccc(Cn3ccnc3CC3CCCCCC3)c2)nn1` (racemic) [Example 23] here?
Its EC50 is 1 to 10 nM.

How did the EC50 turn out when `COc1ccccc1S(=O)(=O)N(Cc1cccc(-n2ncc(C(=O)O)c2[C@@H]2C[C@H]2c2cn(C)nn2)c1)C1CC1` (racemic) [Example 53, 1-(3-((N-cyclopropyl-2-methoxyphenylsulfonamido)methyl)phenyl)-5-((trans)-2-(1-methyl-1H-1,2,3-triazol-4-yl)cyclopropyl)-1H-pyrazole-4-carboxylic acid] was run?
The EC50 was 1000 to 10000 nM.

For `CN(Cc1cccc(-n2ncc(C(=O)O)c2[C@@H]2C[C@H]2c2cn(C)nn2)c1)S(=O)(=O)c1ccccc1OC(F)(F)F` (racemic) [Example 46, 5-((trans)-2-(1-methyl-1H-1,2,3-triazol-4-yl)cyclopropyl)-1-(3-((N-methyl-2-(trifluoromethoxy)phenylsulfonamido)methyl)phenyl)-1H-pyrazole-4-carboxylic acid], which EC50 is on record?
The EC50 was 100 to 1000 nM.

For `Cn1cc([C@@H]2C[C@H]2c2c(C(=O)O)cnn2-c2cccc(CN3Cc4ccccc4CC(C)(C)C3)c2)nn1` (racemic) [Example 7], which EC50 is on record?
The EC50 was 10 to 100 nM.

How did the EC50 turn out when `COc1ccc(Cl)cc1S(=O)(=O)N(C)Cc1cccc(-n2ncc(C(=O)O)c2[C@@H]2C[C@H]2c2cn(C)nn2)c1` (racemic) [Example 40, 1-(3-((5-chloro-2-methoxy-N-methylphenyl-sulfonamido)-methyl)phenyl)-5-((trans)-2-(1-methyl-1H-1,2,3-triazol-4-yl)cyclo-propyl)-1H-pyrazole-4-carboxylic acid] was run?
The EC50 was 100 to 1000 nM.

With `CN(Cc1cccc(-n2ncc(C(=O)O)c2[C@@H]2C[C@H]2c2cn(C)nn2)c1)S(=O)(=O)c1c(Cl)cccc1C(F)(F)F` (racemic) [Example 41, 1-(3-((2-chloro-N-methyl-6-(trifluoro-methyl)phenyl-sulfonamido)-methyl)phenyl)-5-((trans)-2-(1-methyl-1H-1,2,3-triazol-4-yl)cyclo-propyl)-1H-pyrazole-4-carboxylic acid] as the compound, how does the EC50 read?
Its EC50 is 100 to 1000 nM.

For `Cn1cc([C@@H]2C[C@H]2c2c(C(=O)O)cnn2-c2cccc(CN3CC(C)(C)Oc4ccc(F)cc4S3(=O)=O)c2)nn1` (racemic) [Example 5], which EC50 is on record?
Its EC50 is 1 to 10 nM.
